{"source": "patent US8598115B2", "about": "“Cyclic compound and salt thereof” (Astellas Pharma Inc., priority 2008, dated 2013)", "system": "Aspergillus fumigatus FP1305", "assay": "Antifungal activity, broth microdilution method", "format": "cell-based", "experimental": "Antifungal activities for test fungi shown in Table 15 was determined by a broth microdilution method (Hikaru Kume and Toshikazu Yamazaki, Clinical Microbiology, Vol. 21, No. 5, pp. 573-580, 1994).", "note": "Square brackets hold non-standard residues; d marks the D form. Peptide text beside a SMILES is read from it. Orn(N5-OH,N5-Ac) = CC(=O)N(O)CCC[C@H](N)C(=O)O"}
{"smiles": "CC(=O)N([O-])CCC[C@@H]1NC(=O)CNC(=O)CNC(=O)CNC(=O)[C@H](CCCN([O-])C(C)=O)NC(=O)[C@H](CCCN([O-])C(C)=O)NC1=O.[Fe+3]", "note": "[ferrichrome, Ferrichrome] (cyclo(GGG[Orn(N5-OH,N5-Ac)][Orn(N5-OH,N5-Ac)][Orn(N5-OH,N5-Ac)]))", "values": [{"measurement": "MEC (minimum effective concentration)", "value": "≥ 50", "unit": "µg/mL"}]}
